Data published in PubChem BioAssay AID274 (DTP/NCI, 2004).
Values joined by “and” are separate entries in the source; they are usually repeats but may differ in a detail not shown here. Identical values can stand only once. Inconclusive results and toxic doses are left out. How the source made its calls: active means survival T/C of 150% or more; inactive means T/C below 125% in these data.

Tested on: BDF1 mice, Lewis lung carcinoma iv, survival T/C
Test: NCI In Vivo Anticancer Drug Screen. Data for tumor model Lewis Lung Carcinoma (intravenous) in B6D2F1 (BDF1) mice
Settings: endpoint: median survival time, schedule: Q01DX009 (ip), higher = longer survival
Protocol: The antitumor activity of compounds was measured in mice bearing transplantable tumors. Survival or tumor size were measured and the results are expressed as the measurement made in the treated group (T) divided by the measurement made in the vehicle treated control group (C). The tumor model used in this assay is Lewis Lung Carcinoma (intravenous) in B6D2F1 (BDF1) mice

[1] = dose: 12.5 mg/kg/injection, vehicle: Klucel (hydroxypropylcellulose) (HPC)
[2] = dose: 25.0 mg/kg/injection, vehicle: Klucel (hydroxypropylcellulose) (HPC)
[3] = dose: 100.0 mg/kg/injection, vehicle: Klucel (hydroxypropylcellulose) (HPC)
[4] = dose: 200.0 mg/kg/injection, vehicle: Klucel (hydroxypropylcellulose) (HPC)
[5] = dose: 12.5 mg/kg/injection, vehicle: saline
[6] = dose: 25.0 mg/kg/injection, vehicle: saline
[7] = dose: 50.0 mg/kg/injection, vehicle: saline
[8] = dose: 100.0 mg/kg/injection, vehicle: saline
[9] = dose: 200.0 mg/kg/injection, vehicle: saline
[10] = dose: 50.0 mg/kg/injection, vehicle: Klucel (hydroxypropylcellulose) (HPC)
[11] = dose: 12.5 mg/kg/injection, vehicle: saline with Tween-80
[12] = dose: 25.0 mg/kg/injection, vehicle: saline with Tween-80
[13] = dose: 50.0 mg/kg/injection, vehicle: saline with Tween-80
[14] = dose: 200.0 mg/kg/injection, vehicle: saline with Tween-80
[15] = dose: 100.0 mg/kg/injection, vehicle: saline with Tween-80
[16] = dose: 50.0 mg/kg/injection, vehicle: suspension in saline
[17] = dose: 400.0 mg/kg/injection, vehicle: saline with Tween-80

Measured: T/C

CCCCCC[C@H]([C@H](C)O)n1cnc2c(N)ncnc21
inactive: dose: 6.25 mg/kg/injection, vehicle: Klucel (hydroxypropylcellulose) (HPC) 99 % of control | [1] 104 % of control | [2] 103 % of control | [3] 96 % of control | [4] 99 % of control

Nc1nc(/C=C(/O)c2ccccc2)c2ncn(C3OC(CO)C(O)C3O)c2n1 (stereo unspecified)
inactive: [5] 109 % of control | [6] 107 % of control | [7] 102 % of control | [8] 104 % of control

NC(N)=NOCC[C@@H](N)C(=O)O
inactive: [6] 105 % of control | [7] 99 % of control | [8] 107 % of control | [9] 94 % of control | dose: 400.0 mg/kg/injection, vehicle: saline 112 % of control

Cc1ccc(NCC2(/N=C/c3ccccc3)OC(CO)C(O)C2O)cc1 (stereo unspecified)
inactive: [1] 103 % of control | [2] 95 % of control | [10] 100 % of control | [3] 99 % of control | [4] 96 % of control | dose: 400.0 mg/kg/injection, vehicle: Klucel (hydroxypropylcellulose) (HPC) 86 % of control

COc1cc2cc3cc4cc(OC)c(OC)cc4c(C)[n+]3cc2cc1OC (tested in a mixture with another compound)
inactive: dose: 6.25 mg/kg/injection, vehicle: saline 104 % of control | [5] 106 % of control | [6] 107 % of control | [7] 111 % of control

COC(=O)c1[nH]c(=O)[nH]c(=O)c1F
inactive: dose: 6.25 mg/kg/injection, vehicle: saline with Tween-80 106 % of control | [11] 115 % of control | [12] 98 % of control

O=C1C=CC(=O)O1 (tested in a mixture with another compound)
inactive: [6] 101 % of control | [7] 94 % of control | [8] 103 % of control | [9] 95 % of control

O=C(Nc1cccc(Cl)c1)ON1C(=O)C2C(C1=O)C1(Cl)C(Cl)C(Cl)C2(Cl)C1(Cl)Cl (stereo unspecified)
inactive: [13] 98 % of control | [14] 87 % of control

O=c1[nH]c(=O)n(C2CC(O)C(CO)O2)cc1I (stereo unspecified)
inactive: [15] 99 % of control | [14] 108 % of control

O=C1CCCCC1C(=O)C(F)(F)F (stereo unspecified)
inactive: dose: 50.0 mg/kg/injection, vehicle: saline + Tween-80 + alcohol 100 % of control

CCN1CSC(=S)N(CC)C1
inactive: [12] 103 % of control | [13] 101 % of control | [15] 99 % of control

N=c1ccn2c(n1)OC1C(O)C(CO)OC12 (stereo unspecified)
inactive: [6] 104 % of control | dose: 37.5 mg/kg/injection, vehicle: saline 108 % of control | dose: 75.0 mg/kg/injection, vehicle: saline 106 % of control | [8] 112 % of control | dose: 150.0 mg/kg/injection, vehicle: saline 119 % of control | dose: 300.0 mg/kg/injection, vehicle: saline 104 % of control | dose: 600.0 mg/kg/injection, vehicle: saline 92 % of control

CC(=O)OCC1OC(n2cnc3c(=S)nc[nH]c32)C(OC(C)=O)C1OC(C)=O (stereo unspecified)
inactive: [16] 100 % of control

COc1cc(OC)c(OC)cc1/C=C\c1ccnc2ccccc12
inactive: [2] 113 % of control | [10] 105 % of control | [3] 100 % of control | [4] 107 % of control

C(COCCOCC1CO1)OCCOCC1CO1 (stereo unspecified)
inactive: [12] 107 % of control | [13] 104 % of control | [15] 98 % of control | [14] 112 % of control

CC[N](CC)[Ge]([CH2]C)[CH2]C.CC[N](CC)[Ge]([CH2]C)[CH2]C
inactive: dose: 3.12 mg/kg/injection, vehicle: suspension in saline 113 % of control | dose: 6.25 mg/kg/injection, vehicle: suspension in saline 95 % of control | dose: 12.5 mg/kg/injection, vehicle: suspension in saline 96 % of control | dose: 25.0 mg/kg/injection, vehicle: suspension in saline 106 % of control | [16] 100 % of control

COC1/C=C/O[C@@]2(C)Oc3c(C)c(O)c4c(O)c(cc(O)c4c3C2=O)NC(=O)/C(C)=C\C=C\[C@H](C)C(O)[C@@H](C)[C@@H](O)[C@@H](C)[C@H](OC(C)=O)[C@@H]1C (stereo partly specified)
inactive: [11] 102 % of control | [12] 101 % of control | [13] 103 % of control | [15] 107 % of control | [14] 102 % of control | [17] 111 % of control

Nc1cc(Cl)c2[nH]cnc2n1
inactive: dose: 6.25 mg/kg/injection, vehicle: distilled water + Tween-80 106 % of control | dose: 12.5 mg/kg/injection, vehicle: distilled water + Tween-80 98 % of control | dose: 25.0 mg/kg/injection, vehicle: distilled water + Tween-80 109 % of control | dose: 50.0 mg/kg/injection, vehicle: distilled water + Tween-80 113 % of control | dose: 100.0 mg/kg/injection, vehicle: distilled water + Tween-80 107 % of control

NC(=O)c1ncn(C2OC(CO)C(O)C2O)n1 (stereo unspecified)
inactive: dose: 10.0 mg/kg/injection, vehicle: saline 110 % of control | dose: 20.0 mg/kg/injection, vehicle: saline 110 % of control | dose: 40.0 mg/kg/injection, vehicle: saline 101 % of control | dose: 80.0 mg/kg/injection, vehicle: saline 97 % of control | dose: 160.0 mg/kg/injection, vehicle: saline 106 % of control

O=S(=O)(O)O.[W]
inactive: dose: 0.38 mg/kg/injection, vehicle: saline 102 % of control | dose: 0.75 mg/kg/injection, vehicle: saline 118 % of control | dose: 1.5 mg/kg/injection, vehicle: saline 98 % of control | dose: 3.0 mg/kg/injection, vehicle: saline 119 % of control

Cc1cc2nc(Cc3nc4cc(C)c(C)cc4[nH]3)[nH]c2cc1C
inactive: [11] 95 % of control | [12] 109 % of control | [13] 97 % of control and 104 % of control | [15] 100 % of control

Cc1ccc(N=NN(C)C)cc1
inactive: [12] 100 % of control | [13] 105 % of control | [15] 105 % of control

ClC1(c2ccccc2)c2ccc(Br)cc2-c2cc(Br)ccc21
inactive: [12] 102 % of control | [13] 105 % of control | [15] 110 % of control

O=C1NC(=O)/C(=C/C=C/c2ccccc2)S1
inactive: [11] 95 % of control | [12] 104 % of control | [13] 101 % of control | [15] 95 % of control | [14] 105 % of control | [17] 104 % of control
